These results are taken from patent US4221782A (priority 1978, dated 1980).

Series [1] has as its system stickleback. The series can be described thus: Exploratory test with azidotrimethylsilicane. Type of series: in vivo. The conditions noted are these: relative to other azides.
The next series concerns threespine stickleback. On the set-up: species or system Gasterosteus aculeatus. The conditions noted are these: in vivo.
For series [2], the system named is stickleback. Here is the method: For field applications the concentration of NaN3 or N3 -- would vary with water quality--mainly with regard to dissolved solid and hydrogen ion concentrations. […] For the treatment of rivers and shorelines of lakes the concentrations of azide that would be used would be those that would kill stickleback in 12 to 24 hours.
The next series has as its system chinook salmon. Briefly: Example 4: LC0 of chinook, artesian well water, 96-hour bioassays. The conditions noted are these: for LC0 of chinook: artesian well water, 96-hour. The series is classed as in vivo, O. tschawytscha. The source says:
The desirable fishes tested in bioassays included the sockeye salmon (Oncorhynchus nerka), chinook salmon, (O. tschawytscha) and the steelhead, a sea-run variety of rainbow trout (Salmo gairdneri).

The nature of series [3]: Example 5: survival/recovery of sockeye after exposure to sodium azide, 20-day bioassays. The series is classed as in vivo, Oncorhynchus nerka. To be noted: sockeye salmon, in vivo; exposed for 16 hours or less; end of 20-day bioassays. An excerpt: (§1) Stickleback subjected to the same test conditions experienced almost 100% mortality.
The test system of series [4] is sockeye. Described as above. The series is classed as in vivo, Oncorhynchus nerka. The conditions noted are these: exposed for 16 hours or less.
Text: as §1

Series [5] deals with rats. Briefly: Lowest published lethal oral dose in rats (1974 Toxic Substances List). The series is classed as in vivo, rat. To be noted: water treated at 1 mg/l of azide. The procedure:
It would be impossible for a bird or mammal to drink enough water when treated at 1 mg/l of azide for the azide to harm the animal. To drink a lethal dose, an animal would have to drink 46 times its weight in water. Nevertheless safety precautions should be taken when handling the chemical.

In series [6] the test system is freshwater races of rainbow trout. Briefly: Toxicity to rainbow trout, 96-hour bioassays. Type of series: in vivo, Salmo gairdneri.
For a further series, the system named is cutthroat trout. The series can be described thus: Toxicity to cutthroat trout, 96-hour bioassays. The series is classed as in vivo, Salmo clarki.
In the next series the test system is bridgelip sucker. The series can be described thus: Toxicity to bridgelip sucker, 96-hour bioassays. The series is classed as in vivo, Catastomus columbianus.
The next series has as its system speckled dace. Briefly: Toxicity to speckled dace, 96-hour bioassays. Type of series: in vivo, Rhinichthys cataractae.
The subject of another series is redside shiner. Briefly: Toxicity to redside shiner, 96-hour bioassays. Type of series: in vivo, Richardsonius balteatus.
Another series relates to torrent sculpin. The series can be described thus: Toxicity to torrent sculpin, 96-hour bioassays. The series is classed as in vivo, Cottus rotheus.
The subject of series [7] is sockeye. The conditions noted are these: in vivo.
In series [8] the test system is rats. To be noted: cited from earlier work.
A further series has as its system sockeye salmon. Here is the method: Fingerling sockeye salmon in artesian water were exposed to a concentration of 5 mg/l of potassium azide for 24 hours at a temperature of 15 degrees Celsius.
Ten sockeye (length range, 55-93 mm) were assigned to each of four aquaria (load, 2.7 g/l) and concentrations of chemicals were added as indicated in Table 8. The time of mortality was noted.

Series [9] concerns stickleback. This is another data set of the same source.
Text: For water with different chemistry and for application of different concentrations of the azide the delay time of application of deactivator could vary.
Series [10] has as its system threespine stickleback and sockeye salmon. To be noted: increases in temperature. The procedure: Delineation bioassays determined primarily the LC50 and LC100 of stickleback and the LC0 and LC50 of salmonids.
Stickleback (mean length, 44 mm) and sockeye (mean length, 74 mm) in artesian well water were treated with various concentrations of potassium azide in laboratory facilities for 96 hours at 5, 10 and 15 degrees Celsius to determine approximate selectivity and safety indices.

The mark [11] stands for this setting: up to 5.0 mg/l in artesian well water.

Where two headings read alike, the source gives them in different places.

Turning to `C[Si](C)(C)N=[N+]=[N-]` [azidotrimethylsilicane], in the series on stickleback [1], the “biological activity/potency and selectivity of the azide radical in organic compounds” value is “equally biologically active or potent and equally selective”.
Turning to `[Ca+2].[I-].[I-]` [calcium iodide], in the series on threespine stickleback, the azide neutralizing effectiveness entry is on record as “neutralized azide more effectively than calcium chloride”; the “toxicity of azide in standing water and duration of its potency” value (shortened to “toxicity of azide”) was “can be controlled”.
As for `[N-]=[N+]=[N-]` [sodium azide], the “toxicity to fish in river water as opposed to artesian water” value in the series on stickleback [2] (allowing for the 0.8 differential between sodium and potassium azide) is “about 5 times”. The compound also had an LC100 of stickleback in the series with stickleback [2] (river water, 96-hour bioassays, 15 degrees Celsius) of 0.34 mg/L. Further, the “LC0 of chinook salmon compared with sockeye and steelhead” value in the series on chinook salmon (allowing for the 0.8 differential) is “substantially greater than that of sockeye and steelhead”. Moreover, the figures for the LC0 of chinook in the series with chinook salmon (5° C.), in the series on chinook salmon (10° C.) and in the series with chinook salmon (15° C.) were 10.0 mg/L, 8.0 mg/L and 8.0 mg/L, respectively. The same compound had a survival at 480 h in series [3] of 100%. In the series on sockeye [4], the “recovery of sockeye from ill effects” value is recorded as “complete recovered from any ill effects”. Besides, the “amount of water to drink for a lethal dose” value in the series with rats [5] was determined as 46 times its weight. Besides, the toxicity result (in [6] (up to 1.5 mg/l in river water); in [6] (setting [11]); in the series with cutthroat trout (up to 1.5 mg/l in river water); in the series on cutthroat trout (setting [11]); with bridgelip sucker (up to 1.5 mg/l in river water); with bridgelip sucker (setting [11])) was “not toxic” each time. For the same compound, the toxicity result in the series with speckled dace (up to 1.5 mg/l in river water), with speckled dace (setting [11]), in the series on redside shiner (up to 1.5 mg/l in river water), in the series with redside shiner (setting [11]), in the series on torrent sculpin (up to 1.5 mg/l in river water) and with torrent sculpin (setting [11]) was “not toxic” throughout. For the same compound, the “mean times of death at about equal equivalents” value in the series on sockeye [7] is on record as “about equal mean times of death”. The “LDL0, oral (lowest published lethal dose)” value in the series on rats [8] is reported as 46 mg for 2 kg of rat.
Take `[Cl][Sn][Cl]` [stannous chloride]: the “toxicity of azide” value in the series with threespine stickleback was “can be controlled”.
In the case of calcium chloride, the “toxicity of azide” value with threespine stickleback was “can be controlled”. For the same compound, the Survival time with sockeye salmon (3.5 mg/l calcium chloride (1 equivalent weight) after 24 h at 5 mg/l potassium azide) is 90 h; in the series with sockeye salmon (7.0 mg/l calcium chloride (2 equivalent weights) after 24 h at 5 mg/l potassium azide), 112 h; with sockeye salmon (14.0 mg/l calcium chloride (4 equivalent weights) after 24 h at 5 mg/l potassium azide) it was 148 h; in the series with sockeye salmon ([…] calcium chloride (8 equivalent weights) after 24 h at 5 mg/l potassium azide), “Did not die”. Besides, in the series with sockeye salmon (1, 2, 4, and 8 equivalent weights), the “effect on mortality of sockeye exposed to 5 mg/l potassium azide for 24 hours” value is recorded as “delayed the mortality”. Moreover, the “survival of all sockeye in the azide” value in the series on sockeye salmon (8 equivalents of calcium chloride) is “complete survival of all sockeye”. Further, the “delay in application of calcium chloride necessary for maximizing the kill of stickleback” value in the series with stickleback [9] (5 mg/l potassium azide, artesian water) was 2 h. In addition, in the series with stickleback [9] (calcium chloride and potassium azide added about simultaneously), the “death time for stickleback” value is “about doubled”.
Take potassium azide: in series [10], the “effect of temperature on toxicity” value is recorded as “marked increase in the toxicity”.
